The values below come from patent US6969721B2, “Tricyclic-2-pyridone compounds useful as HIV reverse transcriptase inhibitors” (Bristol-Myers Squibb Pharma, priority 2000, dated 2005).

As a reminder, the melting point is the temperature of the solid-liquid transition.

Molecule `CCCCC1(C(F)(F)F)c2cc(Cl)ccc2Nc2c1cc[nH]c2=O` (centres unmarked) [Example 18, 5-Butyl-7-chloro-5-trifluoromethyl-5,10-dihydrobenzo[b]-1,7-naphthyridin-1(2H)-one] had a melting point of 245 to 248 °C.

On to `O=c1[nH]ccc2c1Nc1ccc(Cl)cc1C2(Cc1ccccn1)C(F)(F)F` (centres unmarked) [Example 19, 7-Chloro-5-(2-pyridylmethyl)-5-trifluoromethyl-5,10-dihydrobenzo[b]-1,7-naphthyridin-1(2H)-one], for which the melting point lay in the range of 270 to 275 °C.

`O=c1[nH]ccc2c1Nc1ccc(Cl)cc1C2(CCC1CC1)C(F)(F)F` (centres unmarked) [Example 20, 7-Chloro-5-(2-cyclopropylethyl)-5-trifluoromethyl-5,10-dihydrobenzo[b]-1,7-naphthyridin-1(2H)-one]: the melting point was in the range of 220 to 222 °C.

In turn, `O=c1[nH]ccc2c1Nc1ccc(Cl)cc1C2(C#CC1CC1)C(F)(F)F` (centres unmarked) [Example 21, 7-Chloro-5-cyclopropylethynyl-5-trifluoromethyl-5,10-dihydrobenzo[b]-1,7-naphthyridin-1(2H)-one] gave a melting point of 247 to 250 °C.

The molecule `O=c1[nH]ccc2c1Nc1ccc(Cl)cc1C2(CNC1CC1)C(F)(F)F` (centres unmarked) [Example 22, 7-Chloro-5-(N-cyclopropylaminomethyl)-5-trifluoromethyl-5,10-dihydrobenzo[b]-1,7-naphthyridin-1(2H)-one] registered a melting point of 230 to 235 °C.

In turn, `O=c1[nH]ccc2c1Nc1ccc(Cl)cc1C2(CO)C(F)(F)F` (centres unmarked) [Example 23, 7-Chloro-5-hydroxymethyl-5-trifluoromethyl-5,10-dihydrobenzo[b]-1,7-naphthyridin-1(2H)-one] showed a melting point of 270 to 275 °C.

`CCCOCC1(C(F)(F)F)c2cc(Cl)ccc2Nc2c1cc[nH]c2=O` (centres unmarked) [Example 27, 7-Chloro-5-(n-propoxymethyl)-5-trifluoromethyl-5,10-dihydrobenzo[b]-1,7-naphthyridin-1(2H)-one] registered a melting point of 162 to 165 °C.

`CC(C)OCC1(C(F)(F)F)c2cc(Cl)ccc2Nc2c1cc[nH]c2=O` (centres unmarked) [Example 28, 7-Chloro-5-(i-propoxymethyl)-5-trifluoromethyl-5,10-dihydrobenzo[b]-1,7-naphthyridin-1(2H)-one] returned a melting point of 185 to 190 °C.

As for `COCCC1(C(F)(F)F)c2cc(Cl)ccc2Nc2c1cc[nH]c2=O` (centres unmarked) [Example 29, 7-Chloro-5-(2-methoxyethyl)-5-trifluoromethyl-5,10-dihydrobenzo[b]-1,7-naphthyridin-1(2H)-one], the melting point lay in the range of 268 to 271 °C.

Molecule `CC(C)NCC1(C(F)(F)F)c2cc(Cl)ccc2Nc2c1cc[nH]c2=O` (centres unmarked) [Example 30, 7-Chloro-5-(i-propylaminomethyl)-5-trifluoromethyl-5,10-dihydrobenzo[b]-1,7-naphthyridin-1(2H)-one] returned a melting point of 235 to 240 °C.

In turn, `CC(C)N(C)CC1(C(F)(F)F)c2cc(Cl)ccc2Nc2c1cc[nH]c2=O` (centres unmarked) [Example 31, 7-Chloro-5-(N-methyl-N-i-propylaminomethyl)-5-trifluoromethyl-5,10-dihydrobenzo[b]-1,7-naphthyridin-1(2H)-one] registered a melting point of 105 to 110 °C.

The molecule `O=c1[nH]ccc2c1Nc1ccc(Cl)cc1C2(CNC1CC1)C(F)(F)F` (centres unmarked) [Example 32, 7-Chloro-5-(cyclopropylaminomethyl)-5-trifluoromethyl-5,10-dihydrobenzo[b]-1,7-naphthyridin-1(2H)-one] showed a melting point of 242 to 245 °C.

Turning to `CCCNCC1(C(F)(F)F)c2cc(Cl)ccc2Nc2c1cc[nH]c2=O` (centres unmarked) [Example 33, 7-Chloro-5-(n-propylaminomethyl)-5-trifluoromethyl-5,10-dihydrobenzo[b]-1,7-naphthyridin-1(2H)-one], the melting point lay within 243 to 245 °C.

Consider `O=c1[nH]ccc2c1Nc1ccc(Cl)cc1C2(CNC1CCC1)C(F)(F)F` (centres unmarked) [Example 34, 7-Chloro-5-(cyclobutylaminomethyl)-5-trifluoromethyl-5,10-dihydrobenzo[b]-1,7-naphthyridin-1(2H)-one], for which the melting point lay within 250 to 254 °C.

As to `CC(C)CNCC1(C(F)(F)F)c2cc(Cl)ccc2Nc2c1cc[nH]c2=O` (centres unmarked) [Example 35, 7-Chloro-5-(i-butylaminomethyl)-5-trifluoromethyl-5,10-dihydrobenzo[b]-1,7-naphthyridin-1(2H)-one], the melting point lay in the range of 210 to 215 °C.

As to `CC(C)OCC1(C(F)(F)F)c2cc(Cl)ccc2Nc2c1cc[nH]c2=O` (centres unmarked) [Example 36, 7-Chloro-5-(i-propoxymethyl)-5-trifluoromethyl-5,10-dihydrobenzo[b]-1,7-naphthyridin-1(2H)-one], the melting point fell in the range of 195 to 197 °C.

`CC(C)SCC1(C(F)(F)F)c2cc(Cl)ccc2Nc2c1cc[nH]c2=O` (centres unmarked) [Example 44, 7-Chloro-5-(i-propylsulfanylmethyl)-5-trifluoromethyl-5,10-dihydrobenzo[b]-1,7-naphthyridin-1(2H)-one] yielded a melting point of 220 to 221 °C.

For `CC(C)SCC1(C(F)(F)F)c2cc(F)ccc2Nc2c1cc[nH]c2=O` (centres unmarked) [Example 45, 7-Fluoro-5-(i-propylsulfanylmethyl)-5-trifluoromethyl-5,10-dihydrobenzo[b]-1,7-naphthyridin-1(2H)-one], the melting point was 215 to 216 °C.

The molecule `CC(C)(C)SCC1(C(F)(F)F)c2cc(Cl)ccc2Nc2c1cc[nH]c2=O` (centres unmarked) [Example 46, 7-Chloro-5-(t-butylsulfanylmethyl)-5-trifluoromethyl-5,10-dihydrobenzo[b]-1,7-naphthyridin-1(2H)-one] gave a melting point of 247 to 249 °C.

`CCCCC1(C)c2cc(Cl)ccc2Nc2c1cc[nH]c2=O` (centres unmarked) [Example 61a, 7-Chloro-5-(n-butyl)-5-methyl-5,10-dihydrobenzo[b]-1,7-naphthyridin-1(2H)-one] showed a melting point of 177 to 179 °C.

On to `CCOCCC1(C(F)(F)F)c2cc(Cl)ccc2Nc2c1cc[nH]c2=O` (centres unmarked) [Example 62, 7-Chloro-5-(ethoxyethyl)-5-trifluoromethyl-5,10-dihydrobenzo[b]-1,7-naphthyridin-1(2H)-one], for which the melting point was in the range of 240 to 245 °C.

Consider `CCCCC1(C#N)c2cc(Cl)ccc2Nc2c1cc[nH]c2=O` (centres unmarked) [Example 63, 7-Chloro-5-(n-butyl)-5-cyano-5,10-dihydrobenzo[b]-1,7-naphthyridin-1(2H)-one], for which the melting point lay in the range of 182 to 185 °C.

Take `CCCCC1(CO)c2cc(Cl)ccc2Nc2c1cc[nH]c2=O` (centres unmarked) [Example 64, 7-Chloro-5-(n-butyl)-5-(hydroxymethyl)-5,10-dihydrobenzo[b]-1,7-naphthyridin-1(2H)-one]: the melting point was in the range of 260 to 265 °C.

The molecule `CCCCC1(C(F)F)c2cc(Cl)ccc2Nc2c1cc[nH]c2=O` (centres unmarked) [Example 64a, 7-Chloro-5-(n-butyl)-5-difluoromethyl-5,10-dihydrobenzo[b]-1,7-naphthyridin-1(2H)-one] had a melting point of 198 to 200 °C.

Take `CC(C)OCC1(C(F)F)c2cc(Cl)ccc2Nc2c1cc[nH]c2=O` (centres unmarked) [Example 64b, 7-Chloro-5-(i-propoxymethyl)-5-difluoromethyl-5,10-dihydrobenzo[b]-1,7-naphthyridin-1(2H)-one]: the melting point was in the range of 138 to 142 °C.

For `CCCCC1(C(C)(F)F)c2cc(Cl)ccc2Nc2c1cc[nH]c2=O` (centres unmarked) [Example 65, 7-Chloro-5-(n-butyl)-5-(1,1-difluoroethyl)-5,10-dihydrobenzo[b]-1,7-naphthyridin-1(2H)-one], the melting point lay within 120 to 122 °C.

Molecule `CCCCC1(C(C)(F)F)c2cc(F)ccc2Nc2c1cc[nH]c2=O` (centres unmarked) [Example 66, 5-(n-Butyl)-5-(1,1-difluoroethyl)-7-Fluoro-5,10-dihydrobenzo[b]-1,7-naphthyridin-1(2H)-one] yielded a melting point of 267 to 270 °C.

For the molecule `CCCCC1(C(C)(F)F)c2cc(C#N)ccc2Nc2c1cc[nH]c2=O` (centres unmarked) [Example 67, 7-Cyano-5-(n-butyl)-5-(1,1-difluoroethyl)-5,10-dihydrobenzo[b]-1,7-naphthyridin-1(2H)-one], the melting point lay in the range of 132.2 to 134.7 °C.

Regarding `CCOCC1(C(C)(F)F)c2cc(Cl)ccc2Nc2c1cc[nH]c2=O` (centres unmarked) [Example 68, 7-Chloro-5-(ethoxymethyl)-5-(1,1-difluoroethyl)-5,10-dihydrobenzo[b]-1,7-naphthyridin-1(2H)-one], the melting point lay in the range of 265 to 267 °C.
